The values that follow come from PMC5560558, “Expression and functional implications of the renal apelinergic system in rodents” (PLoS ONE, 2017).

Like-named read-outs stand apart in the source and are kept apart here.

The target of one assay is T1, rat APJ (Rattus norvegicus, UniProt Q9JHG3).
T1 construct: expressed in transfected cells; host or cells: CHO cells, stably transfected clonal line CHO-B78
T1 sequence (Q9JHG3 1-377): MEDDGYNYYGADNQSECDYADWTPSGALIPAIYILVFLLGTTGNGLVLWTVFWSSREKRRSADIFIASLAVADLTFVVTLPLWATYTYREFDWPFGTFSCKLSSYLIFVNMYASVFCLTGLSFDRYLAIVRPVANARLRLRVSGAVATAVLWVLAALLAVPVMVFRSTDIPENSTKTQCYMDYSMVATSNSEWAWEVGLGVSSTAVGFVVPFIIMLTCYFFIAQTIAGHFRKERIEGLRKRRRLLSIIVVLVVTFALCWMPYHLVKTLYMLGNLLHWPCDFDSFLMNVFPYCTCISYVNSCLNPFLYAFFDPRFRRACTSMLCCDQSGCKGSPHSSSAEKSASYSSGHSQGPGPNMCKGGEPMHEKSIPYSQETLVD
Description: ERK1/2 activation (ppERK1/2 immunostaining, IN Cell Analyzer) in CHO-B78 cells. Format: cell-based. The settings on record: 10min at 37°C.

For assay [1], the system named is a number of tissues and cells. Details: method as in PMID 23943882, PMID 25936916. The settings on record: ref [2],[19]; cited from earlier work. An excerpt:
Many questions remain to be explored. For example, does apela in its ncRNA or peptide form(s) contribute to the pathological dispositions of some cardiovascular and metabolic conditions?

The next assay relates to APJ. Further details: method as in 3 sources, one per row (each row's own in cited_ref): ref [11],[12] = [11]; PMID 25995451; doi:10.1074/jbc.M115.648238; 11 Deng C , Chen H , Yang N , Feng Y , Hsueh AJW . Apela regulates fluid homeostasis by binding to the APJ receptor to activate Gi signaling . J Biol Chem . 2015; 290 : 18261 – 18268 . doi: 10.1074/j || [12]; PMID 25639753; doi:10.1038/srep08170; 12 Wang Z , Yu D , Wang M , Wang Q , Kouznetsova J , Yang R , et al Elabela-apelin receptor signaling pathway is functional in mammalian systems . Sci Rep . 2015; 5 : 8170 doi: 10.1038/srep08170 2563 ||| ref [2] = [2]; PMID 23943882; doi:10.1530/JOE-13-0227; 2 O’Carroll A-M , Lolait SJ , Harris LE , Pope GR . The apelin receptor APJ: journey from an orphan to a multifaceted regulator of homeostasis . J Endocrinol . 2013; 219 : 13 – 35 . 23943882 10.1530/ ||| ref [11] = [11]; PMID 25995451; doi:10.1074/jbc.M115.648238; 11 Deng C , Chen H , Yang N , Feng Y , Hsueh AJW . Apela regulates fluid homeostasis by binding to the APJ receptor to activate Gi signaling . J Biol Chem . 2015; 290 : 18261 – 18268 . doi: 10.1074/j. Particulars: cited from earlier work. An excerpt: APJ activation by apelin-13 may involve multiple G proteins, while some actions involving ... || A second endogenous ligand for APJ has recently been discovered. Originally annotated as a long non-coding (nc) RNA (termed Ende) expressed primarily in the definitive endoderm during mouse embryogenesis, the apela (otherwise known as elabela or toddler) gene is also translated. It encodes a predicted 54 (58 in zebrafish) amino acid precursor molecule that is highly conserved across vertebrates and is structurally distinct from the apelin prohormone. The apela precursor can be enzymatically processed into a number of biologically active proteoforms such as ... || APJ was an orphan GPCR [23, 31] until its endogenous ligand apelin was isolated from stomach extracts by ‘reverse pharmacology’ almost 20 years ago [32]. It has recently been proposed that apela, a distinct protein unrelated to apelin, and highly conserved across vertebrates, is a new endogenous ligand for APJ.

Assay [2] relates to cardiac contractility in adult rodents and humans. The settings on record: in vivo, ref [2],[20],[33],[34],[35]; cited from earlier work. An excerpt: In zebrafish, apela is expressed primarily in the embryonic heart and appears to be the main APJ ligand in ...
The conditions of assay [3]: exogenously administered; ref [17]; cited from earlier work. An excerpt:
(§1) This depends on apela binding heterogeneous nuclear ribonucleoprotein L (hnRNPL), an inhi ...

In assay [4] the test system is human embryonic stem cells (ESCs). The settings on record: which did not express aplnr, ref [18]; cited from earlier work.
Excerpt: as §1

Another assay concerns renal APJ. Particulars: cited from earlier work. An excerpt: This depends on apela binding heterogeneous nuclear ribonucleoprotein L (hnRNPL), an inhi ... || The expression of genes for one or both APJ-ligands with their receptor in the same cell, or cells expressing either ligand gene in the close proximity of APJ-expressing cells, raises the possibility of autocrine and/or paracrine actions for the apelinergic system within the heart and kidney. […] Aplnr and apelin appear to be co-localized in endothelial cell ...

The subject of assay [5] is GPCR CXCR4 in cultured human umbilical vein endothelial cells. The settings on record: apela stimulation or knockdown, ref [41]; cited from earlier work. An excerpt:
(§2) The expression of genes for one or both APJ-ligands with their receptor in the same cell, or cells expressing either ligand gene in the close proximity of APJ-expressing cells, raises the possibility of autocrine and/or paracrine actions for the apelinergic system within the heart and kidney. […] Aplnr and apelin appear to be co-localized in endothelial cell ...

A further assay relates to collecting duct APJ. Particulars: proposed, acting on collecting duct APJ; ref [24]; cited from earlier work. An excerpt: Apela mRNA transcripts appear to be more prevalent during development. They are predominantly expressed in the heart of embryonic rodents and zebrafish, and are also detected in isolated cells from the adult rat heart, and in adult rat and mouse kidney by RT-PCR. The precise renal location of apela gene expression in the kidney has not been reported. Evidence for renal apelin expression is less convincing—it appears to be sparsely distributed in tissue endothelial cells and perhaps vascular epithelial cells and glomeruli. In the rat and ...

A further assay has as its system microdissected glomeruli. The settings on record: microdissected glomeruli in vitro; ref [22]; cited from earlier work.
Excerpt: as §2

Description for rat APJ: Chinese hamster ovary (CHO) cells were transfected with the rat aplnr cDNA (B78 [23]) as previously described [26]. Stably-transfected clonal cells were obtained by limiting dilution, and expression of aplnr was determined by Northern dot blots using two ^32P-dATP-labelled 48bp oligonucleotide specific for the rat aplnr sequence (B78A and B78B [23]; see ISHH below). The highest aplnr-expressing cell clones were expanded for use, and one line (CHO-B78) was used for branched-chain in situ hybridization histochemistry and ERK signal transduction assays (see below).
The nuclear and cytoplasmic fluorescence intensities in individual cells were quantified (in arbitrary units)—data was normalized to vehicle controls after subtraction of ‘no primary antibody’ backgrounds. In each experiment the data (nuclear + cytoplasmic ppERK measurements) is mean ± SEM, n = 6 (approx 1200 cells imaged from 3 wells of a 96-well plate; experiments repeated twice).
IN Cell Analyser 1000 experiments were performed in triplicate wells, with experiments performed at least 2 times. Statistical analysis was with a one-way ANOVA and post hoc Dunnett’s test with GraphPad Prism software (version 4.0b). p<0.05 was considered as statistically significant.
Cells were treated for 10min at 37°C with the indicated concentration of ligands. […]

Broadly, the EC50 is the concentration at which the effect is half-maximal. As to “apela-32: rat apela-32 (cyclized, pyroglutamated; Severn Biotech, U.K.) (EKSVNFPRRRKLYRHNCFRRRCISLHSRVPFP; not fully specified; N-terminal pyroglutamate (from Gln1 of the mature peptide))”, in the assay with rat APJ (CHO-B78 cells stably transfected with rat aplnr, 0.01-1000nM ligand, serum-starved O/N (0.1% foetal calf serum), whole-cell (nuclear + cytoplasmic) ppERK immunofluorescence, averaged from two separate experiments, triplicate wells, read-out: EC50 for ERK activation), the EC50 is 15.9 nM.
Consider “apela: second endogenous ligand for APJ; gene encodes a predicted 54 amino acid precursor molecule”, for which the anti-apoptotic activity result in assay [1] was “anti-apoptotic activity”. For the same substance, the “ERK activation in APJ-expressing cells” value in the assay on APJ (in vitro, previous studies confirmed by this paper, ref [11]) is on record as “stimulates ERK activation in APJ-expressing cells in vitro”. Moreover, the “effect on cardiac contractility” value in [2] is listed as “increase cardiac contractility”. Besides, in assay [3], the “effect on food intake” value is listed as “anorexigenic”. In addition, in assay [4], the PI3K/Akt pathway activation result was “activates the PI3K/Akt pathway” and the effect on apoptosis result was “anti-apoptotic”. The “ERK activation (stimulation vs basal)” value with rat APJ (CHO-B78 cells, rat APJ, one-way ANOVA with post hoc Dunnett's test vs vehicle (basal)) is “activates signal transduction pathways (ERK activation) in cells expressing the cloned rat APJ”. Also, the effect on diuresis entry with renal APJ (exogenously administered, ref [11]) is “promotes diuresis”. For the same substance, the “effect on CXCR4 expression” value in assay [5] is listed as “no effect”.
Regarding apelin, in [1], the anti-apoptotic activity entry was “anti-apoptotic activity”. Moreover, in the assay on APJ (often G protein-dependent, ref [2]), the “signal transduction pathways activated on binding APJ” value was “inhibition of adenylate cyclase, stimulation of MAP kinase (ERK) phosphorylation, Akt phosphorylation that could contribute to neuroprotection, and enhancing nitric oxide synthase activity”. The “effect on cardiac contractility” value in assay [2] is “increase cardiac contractility”.
On to apelin-17, for which the “effect on antidiuretic action of arginine vasopressin” value in the assay with collecting duct APJ was “counteracts the antidiuretic effect of arginine vasopressin”. The effect on diuresis entry in the assay on renal APJ (intravenous, ref [22]) is listed as “causes diuresis”. Also, in the assay with microdissected glomeruli, the “effect on haemodynamic function in glomeruli” value is “effects haemodynamic function in microdissected glomeruli in vitro”.
